In ChEMBL document CHEMBL1201862, “PubChem BioAssay data set” (2004):
Calls of active or inactive are those of the source.

Experiments:
[1] = reduction of Shn3 3'UTR-driven luciferase in osteoblasts – cell-based, Clone20 osteoblasts, firefly luciferase, cherry-picked, dose response (AID 624132); assay type: functional;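 further: firefly luciferase luminescence from reporter carrying the Shn3 3'UTR in osteoblasts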
[2] = loss of viability in HepG2 cells – cell-based, CellTiter-Glo, cherry-picked, cytotoxicity control for Shn3 inhibitor project, dose response (AID 624134); assay type: functional
[3] = non-specific 3'UTR reporter inhibition in Clone20-Shn3RL – cell-based, Renilla luciferase, cherry-picked, counter-screen for Shn3 inhibitor project, dose response (AID 624133); assay type: functional
Fatty acid synthase [4] = biological target: T1, Fatty acid synthase (Homo sapiens, UniProt P49327); assay: inhibition of human FAS-TE enzyme activity – biochemical, endpoint fluorescence intensity, uHTS hits, dose response (AID 624327); assay type: functional;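 further: fluorescence from hydrolysis of an O-methyl fluorescein acyl ester substrate by the enzyme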
Fatty acid synthase [5] = biological target: T1, Fatty acid synthase; assay: inhibition of human FAS-TE enzyme activity – biochemical, kinetic fluorescence intensity, dose response (AID 624326); assay type: functional;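 further: rate of fluorescence rise from hydrolysis of a fluorogenic O-methyl fluorescein ester substrate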
[6] = biological target: 26S proteasome non-ATPase regulatory subunit 14 (Homo sapiens, UniProt O00487); assay: inhibition of proteasome subunit RPN11 – biochemical, fluorescence polarization, uHTS hits, confirmation (AID 602368); assay type: functional
[7] = biological target: 72 kDa type IV collagenase (Homo sapiens, UniProt P08253); assay: Dose Response validation of uHTS RPN11 inhibitor hits using a MMP-2 Fluorescence assay.; assay type: functional
Prothrombin = Prothrombin (Bos taurus, UniProt P00735); assay: thrombin protease inhibitors – biochemical, fluorescence polarization, uHTS hits, dose response (AID 602369); assay type: functional
[8] = biological target: T2, Low molecular weight phosphotyrosine protein phosphatase (Homo sapiens, UniProt P24666); assay type: functional; conditions: read-out: IC50_Mean;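 further: Dose-response confirmation assay measuring inhibition of LMPTP enzyme activity by fluorescence intensity read-out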
T2 sequence (P24666 whole entry): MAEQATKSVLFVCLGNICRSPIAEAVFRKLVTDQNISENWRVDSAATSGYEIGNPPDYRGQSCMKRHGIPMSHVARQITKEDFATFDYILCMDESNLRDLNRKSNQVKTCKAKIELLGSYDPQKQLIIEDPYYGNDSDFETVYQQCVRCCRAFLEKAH

[9] = Luminescence Cell-Based Dose Response to Identify Activators of 5'UTR Stem-Loop Driven Prion Protein mRNA Translation in H4-C Neuroglioblastoma Cells. [Related pubchem assays: 1829 (Project Summary), 1814 (Primary HTS)]; assay type: functional
[10] = Luminescence Cell-Based Dose Response HTS to Identify Activators of Luciferase Translation or Activity in H4 […] Cells. [Related pubchem assays: 1829 (Project Summary), 1814 (Primary HTS)]; assay type: functional
H4 = assay: Luminescence Cell-Based Dose Response HTS to Identify Activators of 5'UTR Stem-Loop Driven Prion Protein mRNA Translation in H4 Neuroglioblastoma Cells. [Related pubchem assays: 1829 (Project Summary), 1814 (Primary HTS)]; assay type: functional; conditions: Homo sapiens
[11] = Luminescence Cell-Based Dose Response to Identify Activators of Luciferase Translation or Activity in H4-C Neuroglioblastoma Cells. [Related pubchem assays: 1829 (Project Summary), 1814 (Primary HTS)]; assay type: functional
[12] = Luminescence Cell-Based Dose Confirmation to Identify Activators of 5'UTR Stem-Loop Driven Alpha-Synuclein mRNA Translation in H4 Neuroglioblastoma Cells. [Related pubchem assays: 1829 (Project Summary), 1814 (Primary HTS)]; assay type: functional
[13] = viability of PTEN-deleted HCT116 cells – cell-based, HCT116 PTEN knockout, dose response (AID 1047); assay type: functional;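 further: HCT116 colon tumor cells with PTEN knocked out; cells exposed to compound for 60 hours before readout; potency for loss of cell viability measured by luminescence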
[14] = viability of HCT116 lacking mutant beta-catenin – cell-based, human colon tumor, dose response (AID 1045); assay type: functional;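 further: HCT116 colon tumor cells with beta catenin knocked out; cells exposed to compound for 60 hours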
INS1 = assay: INS-1E survival protection against cytokine death – cell-based, luminescence, retest, dose response (AID 449756); assay type: functional; conditions: Rattus norvegicus;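 further: cell death triggered by IL-1 beta plus TNF-alpha plus IFN-gamma mixture; protective hits raise ATP signal compared with cytokine alone wells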
[15] = Luminescence Cell-Based Dose Confirmation HTS to Identify Activators of 5'UTR Stem-Loop Driven Alpha-Synuclein mRNA Translation in H4 Neuroglioblastoma Cells. [Related pubchem assays: 1829 (Project Summary), 1814 (Primary HTS)]; assay type: functional
[16] = HPDE-C7 pancreatic duct cell viability loss – fluorescence, HTS (AID 430); assay type: functional, cell-based; conditions: Homo sapiens
[17] = viability loss of HPDE-C7K cells – cell-based, fluorescence, HTS, primary screen (AID 431); assay type: functional; conditions: Homo sapiens
HEK293 = assay: EBV LMP1 TES2 canonical NF-kB signalling blockers – cell-based, HEK293, luciferase, cherry-pick, dose response (AID 588343); assay type: functional; conditions: Homo sapiens
Paired box protein Pax-8 = Paired box protein Pax-8 (Homo sapiens, UniProt Q06710); assay: PAX8 transcriptional activity inhibition in RMG-I – RMG-I cells, luciferase, cherry-pick, dose response (AID 687027); assay type: functional, cell-based;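 further: luciferase reporter driven by Pax8 target thyroperoxidase promoter measured by SteadyGlo luminescence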
[18] = OVCAR-3 cell viability loss – plate reader, dry powder samples, PAX8 inhibitor project, dose response (AID 743044); assay type: functional, cell-based
[19] = IGROV1 cell killing – plate reader, dry powder samples, PAX8 inhibitor project, dose response (AID 743043); assay type: functional, cell-based; conditions: IGROV-1
[20] = OVCAR8 cell viability loss – plate reader, dry powder samples, PAX8 project, dose response (AID 743197); assay type: functional, cell-based; conditions: OVCAR-8

T1 sequence (P49327 whole entry): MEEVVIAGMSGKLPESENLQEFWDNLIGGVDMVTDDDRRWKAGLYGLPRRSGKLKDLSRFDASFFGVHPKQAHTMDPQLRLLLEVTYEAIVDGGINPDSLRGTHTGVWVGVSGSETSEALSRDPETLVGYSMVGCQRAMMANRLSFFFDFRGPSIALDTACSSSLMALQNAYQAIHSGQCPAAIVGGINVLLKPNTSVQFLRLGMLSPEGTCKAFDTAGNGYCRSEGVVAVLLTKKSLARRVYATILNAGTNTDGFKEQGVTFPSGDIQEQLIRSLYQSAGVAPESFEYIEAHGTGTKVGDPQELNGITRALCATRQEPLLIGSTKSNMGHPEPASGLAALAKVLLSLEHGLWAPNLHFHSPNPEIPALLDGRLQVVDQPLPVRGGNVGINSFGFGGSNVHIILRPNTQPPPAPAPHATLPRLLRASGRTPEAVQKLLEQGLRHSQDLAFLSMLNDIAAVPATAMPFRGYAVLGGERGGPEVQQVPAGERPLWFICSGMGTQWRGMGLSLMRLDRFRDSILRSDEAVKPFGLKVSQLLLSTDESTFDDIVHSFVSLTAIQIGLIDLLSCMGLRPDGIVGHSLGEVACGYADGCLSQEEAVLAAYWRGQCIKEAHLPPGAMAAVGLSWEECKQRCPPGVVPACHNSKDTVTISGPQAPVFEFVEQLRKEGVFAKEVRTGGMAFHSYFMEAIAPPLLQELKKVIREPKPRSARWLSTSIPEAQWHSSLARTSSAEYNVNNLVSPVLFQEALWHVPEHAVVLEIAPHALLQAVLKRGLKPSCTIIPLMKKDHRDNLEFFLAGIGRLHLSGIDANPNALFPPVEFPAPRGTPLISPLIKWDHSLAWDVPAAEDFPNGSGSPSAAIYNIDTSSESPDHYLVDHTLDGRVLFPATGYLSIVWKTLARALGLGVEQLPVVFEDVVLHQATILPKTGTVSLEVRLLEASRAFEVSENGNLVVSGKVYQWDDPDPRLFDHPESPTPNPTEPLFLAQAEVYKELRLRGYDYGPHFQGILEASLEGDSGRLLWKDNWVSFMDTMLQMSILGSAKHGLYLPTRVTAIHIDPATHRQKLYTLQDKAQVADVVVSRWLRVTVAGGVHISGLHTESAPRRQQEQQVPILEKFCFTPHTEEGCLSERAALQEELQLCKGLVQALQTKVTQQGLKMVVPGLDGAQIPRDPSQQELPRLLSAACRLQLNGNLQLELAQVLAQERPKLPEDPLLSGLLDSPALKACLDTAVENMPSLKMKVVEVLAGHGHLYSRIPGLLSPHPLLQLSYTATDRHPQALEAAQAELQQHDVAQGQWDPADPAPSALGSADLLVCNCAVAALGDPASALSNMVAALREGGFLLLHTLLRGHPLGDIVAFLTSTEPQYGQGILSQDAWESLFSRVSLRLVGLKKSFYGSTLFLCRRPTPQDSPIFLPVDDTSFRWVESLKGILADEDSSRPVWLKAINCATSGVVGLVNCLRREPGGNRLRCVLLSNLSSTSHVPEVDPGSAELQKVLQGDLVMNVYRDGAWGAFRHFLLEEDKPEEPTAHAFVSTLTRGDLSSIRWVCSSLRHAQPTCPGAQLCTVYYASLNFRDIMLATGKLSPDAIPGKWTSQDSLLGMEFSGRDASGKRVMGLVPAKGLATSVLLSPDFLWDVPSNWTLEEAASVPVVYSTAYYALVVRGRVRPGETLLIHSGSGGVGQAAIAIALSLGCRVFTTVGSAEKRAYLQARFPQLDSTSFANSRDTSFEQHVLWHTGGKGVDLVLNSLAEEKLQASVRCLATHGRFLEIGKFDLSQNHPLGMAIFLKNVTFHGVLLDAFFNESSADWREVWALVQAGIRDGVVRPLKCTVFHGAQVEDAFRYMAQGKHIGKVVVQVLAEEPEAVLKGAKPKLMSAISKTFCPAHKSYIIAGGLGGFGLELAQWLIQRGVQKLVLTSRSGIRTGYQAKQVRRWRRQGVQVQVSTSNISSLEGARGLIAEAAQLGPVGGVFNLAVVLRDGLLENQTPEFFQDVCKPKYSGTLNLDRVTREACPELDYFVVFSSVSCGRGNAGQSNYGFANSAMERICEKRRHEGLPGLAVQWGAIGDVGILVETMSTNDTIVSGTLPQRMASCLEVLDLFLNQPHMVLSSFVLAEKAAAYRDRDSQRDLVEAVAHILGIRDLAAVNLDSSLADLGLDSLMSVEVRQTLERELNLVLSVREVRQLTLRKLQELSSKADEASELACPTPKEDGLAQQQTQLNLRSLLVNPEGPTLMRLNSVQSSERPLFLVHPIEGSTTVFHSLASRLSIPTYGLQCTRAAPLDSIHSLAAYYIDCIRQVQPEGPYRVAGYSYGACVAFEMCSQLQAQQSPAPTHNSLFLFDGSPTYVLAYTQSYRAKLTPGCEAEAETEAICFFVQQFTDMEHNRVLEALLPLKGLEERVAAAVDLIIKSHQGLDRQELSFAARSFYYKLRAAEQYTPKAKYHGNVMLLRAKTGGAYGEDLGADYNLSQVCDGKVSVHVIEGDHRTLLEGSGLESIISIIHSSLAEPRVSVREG
Sequence of 72 kDa type IV collagenase (P08253 whole entry): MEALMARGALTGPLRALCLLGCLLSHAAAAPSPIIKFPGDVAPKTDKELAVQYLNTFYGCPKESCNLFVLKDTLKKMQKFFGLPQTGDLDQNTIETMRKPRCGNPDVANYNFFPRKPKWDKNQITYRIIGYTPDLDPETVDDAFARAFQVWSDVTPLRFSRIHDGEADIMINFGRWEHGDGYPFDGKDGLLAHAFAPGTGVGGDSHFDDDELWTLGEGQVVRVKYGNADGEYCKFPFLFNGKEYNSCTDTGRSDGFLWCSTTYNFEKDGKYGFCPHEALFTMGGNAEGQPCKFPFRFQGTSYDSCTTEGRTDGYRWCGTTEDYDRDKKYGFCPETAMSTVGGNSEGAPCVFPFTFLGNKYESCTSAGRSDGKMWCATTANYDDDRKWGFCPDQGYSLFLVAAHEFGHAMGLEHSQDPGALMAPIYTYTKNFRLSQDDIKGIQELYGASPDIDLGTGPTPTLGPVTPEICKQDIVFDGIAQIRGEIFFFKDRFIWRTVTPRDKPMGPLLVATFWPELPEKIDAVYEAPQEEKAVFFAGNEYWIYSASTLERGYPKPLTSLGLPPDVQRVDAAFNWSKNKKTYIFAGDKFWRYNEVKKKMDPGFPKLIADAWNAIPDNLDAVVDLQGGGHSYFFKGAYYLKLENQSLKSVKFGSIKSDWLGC
Sequence of 26S proteasome non-ATPase regulatory subunit 14 (O00487 whole entry): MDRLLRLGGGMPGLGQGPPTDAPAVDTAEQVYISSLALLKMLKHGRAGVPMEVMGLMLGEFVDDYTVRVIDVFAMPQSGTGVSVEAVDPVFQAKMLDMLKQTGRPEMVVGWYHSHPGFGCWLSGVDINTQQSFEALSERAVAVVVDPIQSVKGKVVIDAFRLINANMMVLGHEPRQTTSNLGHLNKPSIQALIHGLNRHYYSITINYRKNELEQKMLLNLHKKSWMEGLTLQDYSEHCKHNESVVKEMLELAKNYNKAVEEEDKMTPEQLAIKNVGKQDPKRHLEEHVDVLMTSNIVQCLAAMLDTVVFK
Sequence of Paired box protein Pax-8 (Q06710 whole entry): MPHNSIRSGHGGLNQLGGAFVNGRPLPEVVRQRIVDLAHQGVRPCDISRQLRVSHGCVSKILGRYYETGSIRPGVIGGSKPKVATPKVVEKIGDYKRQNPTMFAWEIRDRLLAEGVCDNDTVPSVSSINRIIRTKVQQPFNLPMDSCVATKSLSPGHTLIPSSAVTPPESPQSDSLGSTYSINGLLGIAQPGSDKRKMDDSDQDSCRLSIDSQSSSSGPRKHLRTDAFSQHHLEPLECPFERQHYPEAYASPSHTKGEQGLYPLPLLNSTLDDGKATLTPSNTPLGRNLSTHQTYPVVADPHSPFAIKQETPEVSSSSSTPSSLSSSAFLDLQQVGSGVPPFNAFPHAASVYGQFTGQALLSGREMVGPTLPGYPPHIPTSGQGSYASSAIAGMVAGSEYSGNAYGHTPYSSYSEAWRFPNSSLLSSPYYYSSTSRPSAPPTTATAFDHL

SMILES: Cc1nc2c(OCc3ccc(Cl)cc3Cl)cccn2c1N(C)CC1CC1
- AC50 [1]: 10 µM (active)
- AC50 [2]: 35.3 µM (active)
- AC50 [3]: 19.9 µM (active)
- IC50 (Fatty acid synthase [4]): 12.7 µM (active)
- IC50 (Fatty acid synthase [5]): 12.9 µM (active)

SMILES: COc1ccc(Cc2c(-c3ccc(C)cc3)nc3ccc(Cl)cn23)c(C)c1
- IC50 [6]: 27.1 µM (active)
- IC50 [7]: 92.4 µM (active)
- IC50 (Prothrombin): 22.2 µM (active)

SMILES: O=C(N/N=C/C(Br)=C/c1ccccc1)c1ccc([N+](=O)[O-])cc1
- IC50 [8]: 10.4 µM (active)

SMILES: CCn1cc(C(=O)O)c(=O)c2cc(F)c(N3CCN(C(=S)NC(=O)c4ccccc4F)CC3)cc21
- IC50 [8]: 6.64 µM (active)

SMILES: O=C(Nc1ccc2c(c1)CCC2)c1cc(S(=O)(=O)N2CCN(c3ccccc3)CC2)ccc1Cl
- IC50 [6]: 50.9 µM (active)
- IC50 [7]: > 100 µM (inactive)
- IC50 (Prothrombin): 31.6 µM (active)

SMILES: Oc1c(C2=CC(C(F)(F)F)=NCCN2)ccc2ccccc12
- EC50 [9]: 364 nM (active)
- EC50 [10]: < 0.1 µM (inconclusive)
- EC50 (H4): < 0.1 µM (active)
- EC50 [11]: 345 nM (active)
- EC50 [12]: 0.337 µM (active)

SMILES: Cc1cc(Nc2cccc(F)c2)nc(NCc2ccccc2)n1
- EC50 [13]: 11.1 µM (active)
- EC50 [14]: 10.4 µM (active)
- AC50 (INS1): 3.9 µM (active)

SMILES: COC(=O)C1C(=O)c2c([nH]c(C(=O)OCCSC)c2C)CC1C (stereo not drawn)
- EC50 [9]: 1340 nM (active)
- EC50 [15]: < 100 nM (active)
- EC50 [10]: 21.5 µM (active)
- EC50 (H4): 31.9 µM (active)
- EC50 [11]: 963 nM (active)
- EC50 [12]: > 12 µM (not active)

SMILES: O=C(c1ccccc1)C(CCC(CN1CCOCC1)C(=O)c1ccccc1)CN1CCOCC1 (stereo not drawn)
- EC50 [16]: 11.1 µM (active)
- EC50 [17]: 6.43 µM (active)
- AC50 (HEK293): 6.35 µM (active)
- AC50 (INS1): > 120 µM (inactive)
- AC50 [1]: 12.8 µM (active)
- AC50 [2]: 12.6 µM (active)
- AC50 [3]: 11.9 µM (active)

SMILES: O=C(N/N=C/C(Cl)=C/c1ccccc1)c1ccc2c(c1)OCO2
- IC50 [8]: 52.9 µM (inactive)

SMILES: O=C(Nc1cccc(F)c1)N1CCCCN2[C@@H](CO)[C@@H](c3ccc(C#Cc4ccccc4)cc3)[C@@H]2C1
- AC50 (Paired box protein Pax-8): 10.1 µM (active)
- AC50 [18]: 5.97 µM (active)
- AC50 [19]: 13.4 µM (active)
- AC50 [20]: 21.4 µM (active)

SMILES: COc1ccc(C(=O)C[n+]2ccc3c(c2)nc(-c2ccc(OC)cc2OC)n3C)cc1
- EC50 [13]: 31.2 µM (active)
- EC50 [14]: 22 µM (active)

SMILES: C/C(=N\Nc1nc(N2CCOCC2)nc(N2CCOCC2)n1)c1ccc([N+](=O)[O-])cc1
- IC50 (Fatty acid synthase [4]): 14.5 µM (active)
- IC50 (Fatty acid synthase [5]): 17.9 µM (active)
